In brackets after ≈: the same amount, converted by molar mass.
What was measured:
Streptococcus mutans = test: Antibacterial activity against Streptococcus mutans; format: functional
Staphylococcus aureus [1] = test: Antibacterial activity against Staphylococcus aureus ATCC29213 assessed as inhibition of visible growth incubated for 16 to 18 hrs by CLSI method; format: functional; conditions: time 16-18 hrs, read-out: MIC100
Enterococcus faecalis = test: Antibacterial activity against Enterococcus faecalis ATCC29212 assessed as inhibition of visible growth incubated for 16 to 18 hrs by CLSI method; format: functional; conditions: time 16-18 hrs, read-out: MIC100
Bacillus subtilis = test: Antibacterial activity against Bacillus subtilis assessed as inhibition of visible growth incubated for 16 to 18 hrs by CLSI method; format: functional; conditions: time 16-18 hrs, read-out: MIC100
Micrococcus luteus = test: Antibacterial activity against Micrococcus luteus assessed as inhibition of visible growth incubated for 16 to 18 hrs by CLSI method; format: functional; conditions: time 16-18 hrs, read-out: MIC100
Escherichia coli = test: Antibacterial activity against Escherichia coli ATCC25922 assessed as inhibition of visible growth incubated for 16 to 18 hrs by CLSI method; format: functional; conditions: time 16-18 hrs, read-out: MIC100
[2] = system: Stenotrophomonas maltophilia; test: Antibacterial activity against Stenotrophomonas maltophilia assessed as inhibition of visible growth incubated for 16 to 18 hrs by CLSI method; format: functional; conditions: time 16-18 hrs, read-out: MIC100
Salmonella enterica [3] = test: Antibacterial activity against Salmonella enterica 349812 assessed as inhibition of visible growth incubated for 16 to 18 hrs by CLSI method; format: functional; conditions: time 16-18 hrs, read-out: MIC100
Salmonella enterica [4] = test: Antibacterial activity against Salmonella enterica 8389 assessed as inhibition of visible growth incubated for 16 to 18 hrs by CLSI method; format: functional; conditions: time 16-18 hrs, read-out: MIC100
[5] = Hemolytic activity in sheep RBC assessed as hemolysis incubated for 1 hr; format: ADME, cell-based, Ovis aries, Erythrocyte; conditions: sheep red blood cells (erythrocytes)
[6] = Selectivity index, HC50 for hemolytic activity in sheep RBC to MIC for antibacterial activity against Staphylococcus aureus ATCC29213; format: toxicity; conditions: sheep red blood cells (erythrocytes), read-out: Selectivity Index
Staphylococcus aureus [7] = test: Antibacterial activity against methicillin-resistant Staphylococcus aureus clinical isolate M-11 assessed as inhibition of visible growth incubated for 16 to 18 hrs by CLSI method; format: functional; conditions: time 16-18 hrs, read-out: MIC100
Staphylococcus aureus [8] = test: Antibacterial activity against methicillin-resistant Staphylococcus aureus clinical isolate M-12 assessed as inhibition of visible growth incubated for 16 to 18 hrs by CLSI method; format: functional; conditions: time 16-18 hrs, read-out: MIC100
Staphylococcus aureus [9] = test: Antibacterial activity against methicillin-resistant Staphylococcus aureus clinical isolate M-13 assessed as inhibition of visible growth incubated for 16 to 18 hrs by CLSI method; format: functional; conditions: time 16-18 hrs, read-out: MIC100
Staphylococcus aureus [10] = test: Antibacterial activity against methicillin-resistant Staphylococcus aureus clinical isolate M-14 assessed as inhibition of visible growth incubated for 16 to 18 hrs by CLSI method; format: functional; conditions: time 16-18 hrs, read-out: MIC100
Staphylococcus aureus [11] = test: Antibacterial activity against methicillin-resistant Staphylococcus aureus clinical isolate M-15 assessed as inhibition of visible growth incubated for 16 to 18 hrs by CLSI method; format: functional; conditions: time 16-18 hrs, read-out: MIC100
Staphylococcus aureus [12] = test: Antibacterial activity against methicillin-resistant Staphylococcus aureus clinical isolate M-16 assessed as inhibition of visible growth incubated for 16 to 18 hrs by CLSI method; format: functional; conditions: time 16-18 hrs, read-out: MIC100
Staphylococcus aureus [13] = test: Antibacterial activity against methicillin-resistant Staphylococcus aureus clinical isolate M-17 assessed as inhibition of visible growth incubated for 16 to 18 hrs by CLSI method; format: functional; conditions: time 16-18 hrs, read-out: MIC100
Staphylococcus aureus [14] = test: Antibacterial activity against methicillin-resistant Staphylococcus aureus clinical isolate M-18 assessed as inhibition of visible growth incubated for 16 to 18 hrs by CLSI method; format: functional; conditions: time 16-18 hrs, read-out: MIC100
Staphylococcus aureus [15] = test: Antibacterial activity against methicillin-resistant Staphylococcus aureus clinical isolate M-19 assessed as inhibition of visible growth incubated for 16 to 18 hrs by CLSI method; format: functional; conditions: time 16-18 hrs, read-out: MIC100
Staphylococcus aureus [16] = test: Antibacterial activity against methicillin-resistant Staphylococcus aureus clinical isolate M-20 assessed as inhibition of visible growth incubated for 16 to 18 hrs by CLSI method; format: functional; conditions: time 16-18 hrs, read-out: MIC100

CC(C)(C)c1ccc(CCc2ccc(C(C)(C)C)c(O)c2)cc1O
MIC (Streptococcus mutans): 8 µg/mL (≈ 24.5 µM)

C=CCc1ccc(OCCCC[N+](C)(C)CC(=O)NCC)c(-c2ccc(OCCCC[N+](C)(C)CC(=O)NCC)c(CC=C)c2)c1.[Br-].[Br-]
MIC (Staphylococcus aureus [1]): 2 µg/mL
MIC (Enterococcus faecalis): 2 µg/mL
MIC (Bacillus subtilis): 4 µg/mL
MIC (Micrococcus luteus): 8 µg/mL
MIC (Escherichia coli): 4 µg/mL
MIC [2]: 8 µg/mL
MIC (Salmonella enterica [3]): 8 µg/mL
MIC (Salmonella enterica [4]): 32 µg/mL
HC50 at 1 h [5]: 883 µg/mL
selectivity ratio [6]: 442
MIC (Staphylococcus aureus [7]): 16 µg/mL
MIC (Staphylococcus aureus [8]): 8 µg/mL
MIC (Staphylococcus aureus [9]): 8 µg/mL
MIC (Staphylococcus aureus [10]): 8 µg/mL
MIC (Staphylococcus aureus [11]): 8 µg/mL
MIC (Staphylococcus aureus [12]): 16 µg/mL
MIC (Staphylococcus aureus [13]): 8 µg/mL
MIC (Staphylococcus aureus [14]): 8 µg/mL
MIC (Staphylococcus aureus [15]): 8 µg/mL
MIC (Staphylococcus aureus [16]): 8 µg/mL

C=CCc1ccc(O)c(-c2cc(CC=C)ccc2OCC[N+](C)(C)CC(=O)NCCCC)c1.[Br-]
MIC (Staphylococcus aureus [1]): 4 µg/mL
MIC (Enterococcus faecalis): 8 µg/mL
MIC (Bacillus subtilis): 2 µg/mL
MIC (Micrococcus luteus): 4 µg/mL
MIC (Escherichia coli): 32 µg/mL
MIC [2]: 32 µg/mL
MIC (Salmonella enterica [3]): 32 µg/mL
MIC (Salmonella enterica [4]): 32 µg/mL
HC50 at 1 h [5]: 573 µg/mL
selectivity ratio [6]: 143
MIC (Staphylococcus aureus [7]): 8 µg/mL
MIC (Staphylococcus aureus [8]): 8 µg/mL
MIC (Staphylococcus aureus [9]): 8 µg/mL
MIC (Staphylococcus aureus [10]): 4 µg/mL
MIC (Staphylococcus aureus [11]): 4 µg/mL
MIC (Staphylococcus aureus [12]): 4 µg/mL
MIC (Staphylococcus aureus [13]): 4 µg/mL
MIC (Staphylococcus aureus [14]): 4 µg/mL
MIC (Staphylococcus aureus [15]): 4 µg/mL
MIC (Staphylococcus aureus [16]): 4 µg/mL

C=CCc1ccc(OCCC[N+](C)(C)CC(=O)NCCCCCC)c(-c2ccc(OCCC[N+](C)(C)CC(=O)NCCCCCC)c(CC=C)c2)c1.[Br-].[Br-]
MIC (Staphylococcus aureus [1]): 4 µg/mL
MIC (Enterococcus faecalis): 4 µg/mL
MIC (Bacillus subtilis): 2 µg/mL
MIC (Micrococcus luteus): 2 µg/mL
MIC (Escherichia coli): 8 µg/mL
MIC [2]: 8 µg/mL
MIC (Salmonella enterica [3]): 4 µg/mL
MIC (Salmonella enterica [4]): 2 µg/mL
HC50 at 1 h [5]: 1080 µg/mL
selectivity ratio [6]: 269
MIC (Staphylococcus aureus [7]): 4 µg/mL
MIC (Staphylococcus aureus [8]): 4 µg/mL
MIC (Staphylococcus aureus [9]): 4 µg/mL
MIC (Staphylococcus aureus [10]): 4 µg/mL
MIC (Staphylococcus aureus [11]): 4 µg/mL
MIC (Staphylococcus aureus [12]): 4 µg/mL
MIC (Staphylococcus aureus [13]): 4 µg/mL
MIC (Staphylococcus aureus [14]): 4 µg/mL
MIC (Staphylococcus aureus [15]): 4 µg/mL
MIC (Staphylococcus aureus [16]): 4 µg/mL

C=CCc1ccc(O)c(-c2cc(CC=C)ccc2OCCCC[N+](C)(C)CC(=O)NCCCCC)c1.[Br-]
MIC (Staphylococcus aureus [1]): 2 µg/mL
MIC (Enterococcus faecalis): 8 µg/mL
MIC (Bacillus subtilis): 2 µg/mL
MIC (Micrococcus luteus): 4 µg/mL
MIC (Escherichia coli): 8 µg/mL
MIC [2]: 32 µg/mL
MIC (Salmonella enterica [3]): 32 µg/mL
MIC (Salmonella enterica [4]): 32 µg/mL
HC50 at 1 h [5]: 643 µg/mL
selectivity ratio [6]: 322
MIC (Staphylococcus aureus [7]): 4 µg/mL
MIC (Staphylococcus aureus [8]): 4 µg/mL
MIC (Staphylococcus aureus [9]): 4 µg/mL
MIC (Staphylococcus aureus [10]): 4 µg/mL
MIC (Staphylococcus aureus [11]): 4 µg/mL
MIC (Staphylococcus aureus [12]): 4 µg/mL
MIC (Staphylococcus aureus [13]): 4 µg/mL
MIC (Staphylococcus aureus [14]): 4 µg/mL
MIC (Staphylococcus aureus [15]): 4 µg/mL
MIC (Staphylococcus aureus [16]): 4 µg/mL

C=CCc1ccc(OCC[N+](C)(C)CC(=O)NCC)c(-c2ccc(OCC[N+](C)(C)CC(=O)NCC)c(CC=C)c2)c1.[Br-].[Br-]
MIC (Staphylococcus aureus [1]): 8 µg/mL
MIC (Enterococcus faecalis): 8 µg/mL
MIC (Bacillus subtilis): 4 µg/mL
MIC (Micrococcus luteus): 4 µg/mL
MIC (Escherichia coli): 32 µg/mL
MIC [2]: 32 µg/mL
MIC (Salmonella enterica [3]): 32 µg/mL
MIC (Salmonella enterica [4]): 64 µg/mL
HC50 at 1 h [5]: 639 µg/mL
selectivity ratio [6]: 79.9
MIC (Staphylococcus aureus [7]): 8 µg/mL
MIC (Staphylococcus aureus [8]): 8 µg/mL
MIC (Staphylococcus aureus [9]): 8 µg/mL
MIC (Staphylococcus aureus [10]): 4 µg/mL
MIC (Staphylococcus aureus [11]): 4 µg/mL
MIC (Staphylococcus aureus [12]): 4 µg/mL
MIC (Staphylococcus aureus [13]): 4 µg/mL
MIC (Staphylococcus aureus [14]): 4 µg/mL
MIC (Staphylococcus aureus [15]): 4 µg/mL
MIC (Staphylococcus aureus [16]): 4 µg/mL

Reference: ChEMBL document CHEMBL4831516, “Development of Membrane-Active Honokiol/Magnolol Amphiphiles as Potent Antibacterial Agents against Methicillin-Resistant Staphylococcus aureus (MRSA)” (J Med Chem, 2021)
